# Measured values reported in article PMC6354011 (Scientific Reports, 2019).
# Several values for one entry are separate records, joined by “and”; a condition that tells them apart may be missing. Identical values can stand only once. Like-named read-outs stand apart in the source and are kept apart here.
# Assays:
# [1] = biological target: T1, Electric eel acetylcholinesterase (AChE, EC 3.1.1.7) (Electrophorus electricus, UniProt O42275); test: biochemical; conditions: mean ± SD, n = 3; read-out: IC50 (µM) AChE
# T1 construct: purchased Sigma-Aldrich (USA)
# Source text: (§1) Ellman’s colorimetric method with minor modification was employed in the determination of AChE and BChE inhibitory activities. Electric eel acetylcholinesterase (AChE, EC 3.1.1.7), equine serum butyrylcholinesterase (BChE, EC 3.1.1.8), 5,5′-Dithiobis(2-nitrobenzoic acid) (DTNB) and sodium phosphate dibasic (Na2HPO4) were purchased from Sigma-Aldrich (USA). S-butyrylthiocholine chloride (BTCC) from Sigma-Aldrich (Switzerland), acetylthiocholine iodide (ATCI) from Sigma-Aldrich (United Kingdom) and sodium phosphate monobasic (NaH2PO4) from Sigma-Aldrich (Germany) were purchased. […] Ethanol was used to replace the sample as a control in this assay.
# [2] = biological target: T2, equine serum butyrylcholinesterase (BChE, EC 3.1.1.8) (Equus caballus, UniProt P81908); test: biochemical; assay type: biochemical; conditions: for BChE % inhibition: single read
# T2 construct: equine serum butyrylcholinesterase (BChE, EC 3.1.1.8); purchased Sigma-Aldrich (USA); host or cells: equine serum
# Source text: as §1
# [3] = mean ± SD, n = 3, read-out: IC50 (µM) BChE
# T2 sequence (P81908 whole entry): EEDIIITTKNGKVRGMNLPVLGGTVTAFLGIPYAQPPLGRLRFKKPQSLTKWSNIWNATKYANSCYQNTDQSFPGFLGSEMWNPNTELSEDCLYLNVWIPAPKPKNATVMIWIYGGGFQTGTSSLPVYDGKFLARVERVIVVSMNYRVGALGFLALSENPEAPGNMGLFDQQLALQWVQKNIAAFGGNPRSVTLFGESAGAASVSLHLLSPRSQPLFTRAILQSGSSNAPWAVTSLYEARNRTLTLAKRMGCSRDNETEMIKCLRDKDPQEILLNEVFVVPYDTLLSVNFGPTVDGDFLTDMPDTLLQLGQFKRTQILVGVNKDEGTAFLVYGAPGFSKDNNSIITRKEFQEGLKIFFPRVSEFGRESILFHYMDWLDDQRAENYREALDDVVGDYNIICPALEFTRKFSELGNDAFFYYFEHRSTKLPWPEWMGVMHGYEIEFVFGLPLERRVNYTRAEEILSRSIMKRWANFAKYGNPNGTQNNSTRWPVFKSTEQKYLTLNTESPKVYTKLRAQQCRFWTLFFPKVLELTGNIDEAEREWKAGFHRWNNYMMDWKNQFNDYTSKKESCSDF
# T1 sequence (O42275 24-633): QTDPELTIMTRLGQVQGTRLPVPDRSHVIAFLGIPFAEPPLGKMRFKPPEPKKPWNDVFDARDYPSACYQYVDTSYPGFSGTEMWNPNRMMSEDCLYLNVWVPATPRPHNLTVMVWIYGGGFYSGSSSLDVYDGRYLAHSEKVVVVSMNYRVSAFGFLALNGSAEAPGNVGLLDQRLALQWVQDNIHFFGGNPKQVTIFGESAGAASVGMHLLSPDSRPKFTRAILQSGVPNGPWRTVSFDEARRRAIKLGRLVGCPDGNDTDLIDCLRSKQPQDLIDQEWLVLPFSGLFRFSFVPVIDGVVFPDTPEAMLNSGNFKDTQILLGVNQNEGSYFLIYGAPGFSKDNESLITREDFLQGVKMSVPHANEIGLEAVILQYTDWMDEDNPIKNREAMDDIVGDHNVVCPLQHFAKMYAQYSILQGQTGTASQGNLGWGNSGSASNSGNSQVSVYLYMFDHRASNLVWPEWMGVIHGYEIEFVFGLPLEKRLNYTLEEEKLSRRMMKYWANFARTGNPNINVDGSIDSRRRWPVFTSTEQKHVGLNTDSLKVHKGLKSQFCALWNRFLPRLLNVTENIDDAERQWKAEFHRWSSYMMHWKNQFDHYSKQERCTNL
SMILES,IC50 [1] [µM],"IC50 ([2]; N = 3, unit not given (µg/mL scale), read-out: BChE IC50, Tukey HSD homogeneous subsets (group mean) (converted)) [µM]",BChE % inhibition ([2]; conc 25 (µg/mL)),BChE % inhibition ([2]; conc 100 (µg/mL)),BChE % inhibition ([2]; conc 150 (µg/mL)),BChE % inhibition ([2]; conc 200 (µg/mL)),BChE % inhibition ([2]; conc 250 (µg/mL)),"IC50 [2, 3] [µM]"
"Cc1cccn2cc(-c3ccc(Cl)cc3)nc12 [Compound 2n, 2-(4-chlorophenyl)-8-methylimidazo[1,2-a]pyridine]",> 2000,737,10.83% and 20.0586% and 13.47%,42.02% and 27.53% and 43.78%,45.53% and 45.97% and 50.81%,56.52% and 54.76% and 59.15%,63.98% and 61.79%,722 ± 48
"Cc1cccn2cc(-c3ccc(Br)cc3)nc12 [Compound 2o, 2-(4-bromophenyl)-8-methylimidazo[1,2-a]pyridine]",> 2000,–,–,–,–,–,–,> 2000
